20 compounds from patent publication US9115065B2 (priority 2004, dated 2015) can be followed below.

Where two headings read alike, the source gives them in different places.

Assay [1] relates to Tacaribe virus. As to the kind of experiment: microbe, parasite or virus in culture. It counts as cell-based. Conditions: Mammarenavirus tacaribeense, Vero.
Assay [2] has as its system Guanarito. As to the kind of experiment: microbe, parasite or virus in culture. It counts as cell-based. Conditions: Mammarenavirus guanaritoense, HEK-293T, read-out: Antiviral activity vs. pseudotyped viruses: Guanarito.
For assay [3], the system named is VSV. Briefly: microbe, parasite or virus in culture. It counts as cell-based. As to conditions: Vesicular stomatitis virus, HEK-293T, read-out: VSV (μM) (negative control).
Assay [4] concerns Tacaribe. Briefly: microbe, parasite or virus in culture. Conditions: Mammarenavirus tacaribeense, HEK-293T, read-out: Antiviral activity vs. pseudotyped viruses: Tacaribe. It counts as cell-based.
For assay [5], the system named is Machupo. As to the kind of experiment: microbe, parasite or virus in culture. As to conditions: Mammarenavirus machupoense, HEK-293T, read-out: Antiviral activity vs. pseudotyped viruses: Machupo. It is filed as cell-based.
Assay [6] deals with Junín. As to the kind of experiment: microbe, parasite or virus in culture. Conditions: Mammarenavirus juninense, HEK-293T, read-out: Antiviral activity vs. pseudotyped viruses: Junín. It counts as cell-based, Junin virus.
For assay [7], the system named is icd-GPC. It is filed as binding, Junin virus.
For assay [8], the target named is JUNV GPC (Junin mammarenavirus, UniProt P26313). As to the kind of experiment: cell-based. More on the design: species or system Junin virus.
Chain of JUNV GPC (P26313 2-58 limits assumed): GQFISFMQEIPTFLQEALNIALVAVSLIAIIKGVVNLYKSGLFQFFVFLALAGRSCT
Chain of JUNV GPC (P26313 59-251 partner limits assumed): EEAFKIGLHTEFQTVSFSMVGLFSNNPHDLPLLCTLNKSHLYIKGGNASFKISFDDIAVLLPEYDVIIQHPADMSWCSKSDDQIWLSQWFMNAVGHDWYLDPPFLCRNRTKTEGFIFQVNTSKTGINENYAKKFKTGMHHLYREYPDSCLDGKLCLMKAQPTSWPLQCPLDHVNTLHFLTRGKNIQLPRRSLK
Chain of JUNV GPC (P26313 252-485 limits assumed): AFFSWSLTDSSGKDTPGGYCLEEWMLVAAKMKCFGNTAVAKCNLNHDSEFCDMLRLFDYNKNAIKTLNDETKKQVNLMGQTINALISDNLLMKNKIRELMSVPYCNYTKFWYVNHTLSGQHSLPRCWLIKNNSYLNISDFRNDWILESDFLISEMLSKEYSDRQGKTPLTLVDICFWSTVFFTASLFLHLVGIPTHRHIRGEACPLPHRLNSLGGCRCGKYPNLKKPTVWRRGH
Assay [9] deals with icd-GPC. It counts as binding, Junin virus. The source holds these as a separate data set.

With `CCC(NC(=O)NNS(=O)(=O)c1ccc(OC(F)F)cc1)(C(F)(F)F)C(F)(F)F` [Compound 108, 1-[1,1-bis(trifluoromethyl)propyl]-3-[[4-(difluoromethoxy)phenyl]sulfonyl-amino]urea], in assay [1] (read-out: Tacaribe (result of cytopathic effect assay)), the EC50 was less than 1000 nM.

Take `CCC(NC(=O)NNS(=O)(=O)c1cc(C)cc(C)c1)(C(F)(F)F)C(F)(F)F` [Compound 109, 1-[1,1-bis(trifluoromethyl)propyl]-3-[(3,5-dimethylphenyl)sulfonylamino] urea]: the EC50 in assay [2] was less than 10000 nM; in [3], greater than 30 µM; in assay [4], less than 1000 nM; in [5] it was less than 10000 nM.

For the compound `CCC(NC(=O)NNS(=O)(=O)c1ccc(-c2csnn2)cc1)(C(F)(F)F)C(F)(F)F` [Compound 114, 1-[1,1-bis(trifluoromethyl)propyl]-3-[[4-(thiadiazol-4-yl)phenyl]sulfonylamino]urea], the EC50 is less than 1000 nM in [2]; greater than 30 µM in assay [3]; less than 1000 nM in assay [4]; less than 1000 nM in [5]; less than 1000 nM in [6].

For `CCC(NC(=O)NNS(=O)(=O)c1cc(Cl)ccc1OC)(C(F)(F)F)C(F)(F)F` [Compound 104, 1-[1,1-bis(trifluoromethyl)propyl]-3-[(5-chloro-2-methoxy-phenyl)sulfonylamino]urea], the EC50 in [2] was less than 1000 nM; in assay [3] it was greater than 30 µM; in assay [4] it was less than 1000 nM; in [5] it was less than 1000 nM.

With `CCC(NC(=O)NNS(=O)(=O)c1c(C)cc(C)cc1C)(C(F)(F)F)C(F)(F)F` [Compound 99, 1-[1,1-bis(trifluoromethyl)propyl]-3-[(2,4,6-trimethylphenyl)sulfonylamino] urea], the EC50 is less than 1000 nM in assay [2], greater than 30 µM in [3], less than 1000 nM in [4] and less than 1000 nM in [5].

As to `CCC(NC(=O)NNS(=O)(=O)c1ccc(Br)cc1)(C(F)(F)F)C(F)(F)F` [Compound 107, 1-[1,1-bis(trifluoromethyl)propyl]-3-[(4-bromophenyl)sulfonylamino] urea], the EC50 is less than 1000 nM in [2], greater than 30 µM in assay [3], less than 1000 nM in assay [4] and less than 1000 nM in assay [5].

As for `CCC(NC(=O)NNS(=O)(=O)c1cc(Br)ccc1OC)(C(F)(F)F)C(F)(F)F` [Compound 115, 1-[1,1-bis(trifluoromethyl)propyl]-3-[(5-bromo-2-methoxy-phenyl)sulfonylamino]urea], the EC50 is less than 1000 nM in [2], greater than 30 µM in assay [3], less than 1000 nM in assay [4] and less than 1000 nM in [5].

Regarding `CCC(NC(=O)NNS(=O)(=O)c1cc(OCC(F)(F)F)ccc1OCC(F)(F)F)(C(F)(F)F)C(F)(F)F` [Compound 113, 1-[[2,5-bis(2,2,2-trifluoroethoxy)phenyl]sulfonyl-amino]-3-[1,1-bis(trifluoromethyl)propyl]urea], the EC50 in assay [2] was less than 1000 nM; in [3], 21 µM; in [4], less than 1000 nM; in assay [5], less than 1000 nM.

Consider `CCC(NC(=O)NNS(=O)(=O)c1cccc2c(N(C)C)cccc12)(C(F)(F)F)C(F)(F)F` [Compound 110, 1-[1,1-bis(trifluoromethyl)propyl]-3-[[5-(dimethylamino)-1-naphthyl]sulfonylamino]urea], for which the EC50 is less than 10000 nM in assay [2]; greater than 30 µM in assay [3]; less than 1000 nM in assay [4]; less than 1000 nM in [5]; less than 1000 nM in [6]; 600 nM in [8]. Further, the “dansyl fluorescence at 525 nm on binding to solubilized icd-GPC” value in assay [7] was “increase in a time-dependent manner”.

Regarding `CC(NC(=O)Nc1ccccc1C(F)(F)F)(C(F)(F)F)C(F)(F)F` [Example 97, 1-(2-Trifluoromethylphenyl)-3-(2,2,2-trifluoro-1-methyl-1-trifluoromethylethyl)-urea], the EC50 in [1] (read-out: Tacaribe EC50) is greater than 5000 nM.

For the compound `COc1ccc(-n2cnc3cc(NCc4ccc(C(C)C)cc4)ccc32)cc1` [ST-193, reference compound], in [9], the “displacement of bound ST-375 from icd-GPC” value is “displaced from icd-GPC in a time- and concentration-dependent manner”.

As for `CCC(NC(=O)NNS(=O)(=O)c1cccc2ccccc12)(C(F)(F)F)C(F)(F)F` [Compound 111, 1-[1,1-bis(trifluoromethyl)propyl]-3-(1-naphthylsulfonylamino)urea], the EC50 in assay [2] was less than 1000 nM; in [3] it was greater than 30 µM; in [4], less than 1000 nM; in [5], less than 1000 nM.

As for `CCC(NC(=O)NNS(=O)(=O)c1ccc2ccccc2c1)(C(F)(F)F)C(F)(F)F` [Compound 102, 1-[1,1-bis(trifluoromethyl)propyl]-3-(2-naphthylsulfonylamino)urea], the EC50 in [2] is less than 1000 nM; in [3] it was greater than 20 µM; in assay [4], less than 1000 nM; in assay [5], less than 1000 nM.

Take `CCC(NC(=O)NNS(=O)(=O)c1ccc(Cl)c(Cl)c1)(C(F)(F)F)C(F)(F)F` [Compound 106, 1-[1,1-bis(trifluoromethyl)propyl]-3-[(3,4-dichlorophenyl)sulfonylamino]urea]: the EC50 in [2] was less than 1000 nM; in assay [3], greater than 30 µM; in assay [4], less than 1000 nM; in assay [5], less than 1000 nM.

Consider `CCC(NC(=O)NNS(=O)(=O)c1ccc(-c2ccccc2)cc1)(C(F)(F)F)C(F)(F)F` [Compound 116, 1-[1,1-bis(trifluoromethyl)propyl]-3-[(4-phenylphenyl)sulfonylamino] urea], for which the EC50 is less than 10000 nM in assay [2], greater than 20 µM in assay [3], less than 1000 nM in assay [4] and less than 1000 nM in [5].

As to `CCC(NC(=O)NNS(=O)(=O)c1ccc(C(C)(C)C)cc1)(C(F)(F)F)C(F)(F)F` [Compound 100, 1-[1,1-bis(trifluoromethyl)propyl]-3-[(4-tert-butylphenyl)sulfonylamino]urea], the EC50 is less than 1000 nM in [2], 19.7 µM in [3], less than 1000 nM in [4] and less than 1000 nM in assay [5].

Consider `CCC(NC(=O)NNS(=O)(=O)c1ccccc1-c1ccccc1)(C(F)(F)F)C(F)(F)F` [Compound 105, 1-[1,1-bis(trifluoromethyl)propyl]-3-[(2-phenylphenyl)sulfonylamino] urea], for which the EC50 in assay [2] is less than 1000 nM; in assay [3], greater than 30 µM; in assay [4] it was less than 1000 nM; in assay [5], less than 1000 nM.

Regarding `CCC(NC(=O)NNS(=O)(=O)c1ccc2c(c1)OCCN2C)(C(F)(F)F)C(F)(F)F` [Compound 112, 1-[1,1-bis(trifluoromethyl)propyl]-3-[(4-methyl-2,3-dihydro-1,4-benzoxazin-7-yl)sulfonylamino] urea], the EC50 is less than 10000 nM in assay [2], greater than 30 µM in [3], less than 1000 nM in assay [4] and less than 1000 nM in [5].

Take `CCC(NC(=O)NNS(=O)(=O)c1ccc(C(C)C)cc1)(C(F)(F)F)C(F)(F)F` [Compound 103, 1-[1,1-bis(trifluoromethyl)propyl]-3-[(4-isopropylphenyl)sulfonylamino] urea]: the EC50 in assay [2] was less than 1000 nM; in assay [3], greater than 20 µM; in assay [4], less than 1000 nM; in assay [5] it was less than 1000 nM.

For `CCC(NC(=O)NNS(=O)(=O)c1cc(OC)ccc1OC)(C(F)(F)F)C(F)(F)F` [Compound 101, 1-[1,1-bis(trifluoromethyl)propyl]-3-[(2,5-dimethoxyphenyl)sulfonylamino] urea], the EC50 was less than 1000 nM in assay [2], greater than 30 µM in assay [3], less than 1000 nM in [4] and less than 1000 nM in assay [5].
